Structures can show the parent of a compound that is named as a salt.
Legend:
[1] = biological target: T1, human factor XIa (Homo sapiens, UniProt P03951); experiment: Measurement of FXIa inhibition (fluorogenic peptide substrate Boc-Glu(OBzl)-Ala-Arg-AMC); format: biochemical; details: factor XIa from Kordia, 15 min preincubation, 30 min at 22° C., fluorescence
T1 construct: purchased Kordia
Procedure, shortened: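 Released AMC fluorescence (360/460 nm) read after 30 min at 22 °C. The reaction was started with Boc-Glu(OBzl)-Ala-Arg-AMC (10 μM stock) after a 15 min preincubation of the enzyme (0.45 nM stock) with compound (final 50 μM to 0.00013 μM).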

[2] = system: human and animal plasma; experiment: Determination of anticoagulatory activity: activated partial thromboplastin time (aPTT) in plasma; details: concentration of test substance which brings about a 1.5-fold extension of the aPTT, plasma species not given
Procedure, shortened: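 Citrated plasma (1:9, 0.11 M citrate; 4000 g, 15 min) from human or animal blood incubated with test compound and cephalin/kaolin PTT reagent for 3 min at 37° C.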

T1 sequence (P03951 388-625 limits assumed): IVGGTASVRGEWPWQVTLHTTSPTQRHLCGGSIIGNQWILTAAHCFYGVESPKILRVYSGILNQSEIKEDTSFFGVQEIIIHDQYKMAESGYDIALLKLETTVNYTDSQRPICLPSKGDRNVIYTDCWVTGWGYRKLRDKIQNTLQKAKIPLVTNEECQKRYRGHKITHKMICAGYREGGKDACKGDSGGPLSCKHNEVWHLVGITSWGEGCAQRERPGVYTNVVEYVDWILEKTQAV
T1 sequence (P03951 19-387 partner limits assumed): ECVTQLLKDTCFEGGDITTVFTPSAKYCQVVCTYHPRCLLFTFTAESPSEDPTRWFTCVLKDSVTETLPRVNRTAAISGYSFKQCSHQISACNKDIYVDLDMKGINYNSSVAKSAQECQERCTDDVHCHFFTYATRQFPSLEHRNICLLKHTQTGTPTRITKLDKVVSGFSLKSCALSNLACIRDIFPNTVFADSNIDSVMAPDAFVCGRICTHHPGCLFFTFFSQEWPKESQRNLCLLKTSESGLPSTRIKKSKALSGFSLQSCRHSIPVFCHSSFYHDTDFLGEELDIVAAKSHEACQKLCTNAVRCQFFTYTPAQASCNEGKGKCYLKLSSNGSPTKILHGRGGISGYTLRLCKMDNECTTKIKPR

| Structure (SMILES) | IC50 [1] [nM] | aPTT [2] [µmol/L] | aPTT ([2]; hydrochloride) [µmol/L] |
| --- | --- | --- | --- |
| COCCOCCOCCOCCNC(=O)c1ccc(-c2ccc(C[C@H](NC(=O)[C@H]3CC[C@H](CN)CC3)C(=O)Nc3ccc4c(=O)[nH][nH]c4c3)cc2)c(C)c1 [Example 28, 4′-{(2S)-2-({[trans-4-(Aminomethyl)cyclohexyl]carbonyl}amino)-3-oxo-3-[(3-oxo-2,3-dihydro-1H-indazol-6-yl)amino]propyl}-2-methyl-N-(2,5,8,11-tetraoxatridecan-13-yl)biphenyl-4-carboxamide hydrochloride] | 14 | 0.33 |  |
| Cc1cc(C(=O)NC2CCN(C)CC2)ccc1-c1ccc(C[C@H](NC(=O)[C@H]2CC[C@H](CN)CC2)C(=O)Nc2ccc(-c3nc(C(F)(F)C(F)(F)C(=O)O)n[nH]3)cc2)cc1 [Example 100, 3-[5-(4-{[(2S)-2-({[trans-4-(Aminomethyl)cyclohexyl]carbonyl}amino)-3-{2′-methyl-4′-[(1-methylpiperidin-4-yl)carbamoyl]biphenyl-4-yl}propanoyl]amino}phenyl)-1H-1,2,4-triazol-3-yl]-2,2,3,3-tetrafluoropropanoic acid hydrochloride] | 2.2 |  | 0.1 |
| Cc1nnc(-c2ccc(NC(=O)[C@H](Cc3ccc(-c4ccc(C(=O)NC5CCNCC5)cc4C)cc3)NC(=O)[C@H]3CC[C@H](CN)CC3)cc2)[nH]1 [Example 56, 4′-[(2S)-2-({[trans-4-(Aminomethyl)cyclohexyl]carbonyl}amino)-3-{[4-(3-methyl-4H-1,2,4-triazol-5-yl)phenyl]amino}-3-oxopropyl]-2-methyl-N-(piperidin-4-yl)biphenyl-4-carboxamide hydrochloride] | 48 | 0.44 |  |
| Cc1cc(C(=O)NC2CCN(C)CC2)ccc1-c1ccc(C[C@H](NC(=O)[C@H]2CC[C@H](CN)CC2)C(=O)Nc2ccc3[nH]c(C(F)(F)F)nc3c2)cc1 [Example 76, 4′-[(2S)-2-({[trans-4-(Aminomethyl)cyclohexyl]carbonyl}amino)-3-oxo-3-{[2-(trifluoromethyl)-1H-benzimidazol-5-yl]amino}propyl]-2-methyl-N-(1-methylpiperidin-4-yl)biphenyl-4-carboxamide hydrochloride] | 25 | 0.37 |  |
| Cc1cc(C(=O)NC2CCNCC2)ccc1-c1ccc(C[C@H](NC(=O)[C@H]2CC[C@H](CN)CC2)C(=O)Nc2ccc(-c3nc(C(F)(F)C(F)(F)C(=O)O)n[nH]3)cc2)cc1 [Example 98, 3-{(5-[4-({(2S)-2-({[trans-4-(Aminomethyl)cyclohexyl]carbonyl}amino)-3-[2′-methyl-4′-(piperidin-4-ylcarbamoyl)biphenyl-4-yl]propanoyl}amino)phenyl]-1H-1,2,4-triazol-3-yl}-2,2,3,3-tetrafluoropropanoic acid hydrochloride] | 1 | 0.06 |  |
| Cc1cc(C(=O)NC2CCNCC2(C)C)ccc1-c1ccc(C[C@H](NC(=O)[C@H]2CC[C@H](CN)CC2)C(=O)Nc2ccc(-c3nnn[nH]3)cc2)cc1 (stereo partly drawn) [Example 149, 4′-[(2S)-2-({[trans-4-(Aminomethyl)cyclohexyl]carbonyl}amino)-3-oxo-3-{[4-(1H-tetrazol-5-yl)phenyl]amino}propyl]-N-(3,3-dimethylpiperidin-4-yl)-2-methylbiphenyl-4-carboxamide hydrochloride] | 1.8 | 0.04 |  |
| CNC(=O)C(F)(F)C(F)(F)c1n[nH]c(-c2ccc(NC(=O)[C@H](Cc3ccc(-c4ccc(C(=O)NC5CCNCC5)cc4C)cc3)NC(=O)[C@H]3CC[C@H](CN)CC3)cc2)n1 [Example 128, 4′-{(2S)-2-({[trans-4-(Aminomethyl)cyclohexyl]carbonyl}amino)-3-oxo-3-[(4-{3-[1,1,2,2-tetrafluoro-3-(methylamino)-3-oxopropyl]-1H-1,2,4-triazol-5-yl}phenyl)amino]propyl}-2-methyl-N-(piperidin-4-yl)biphenyl-4-carboxamide hydrochloride] | 1.7 | 0.14 |  |
| CCN(CC)CCCNC(=O)c1ccc(-c2ccc(C[C@H](NC(=O)[C@H]3CC[C@H](CN)CC3)C(=O)Nc3ccc(-c4nn[nH]n4)cc3)cc2)c(C)c1 [Example 29, 4′-[(2S)-2-({[trans-4-(Aminomethyl)cyclohexyl]carbonyl}amino)-3-oxo-3-{[4-(2H-tetrazol-5-yl)phenyl]amino}propyl]-N-[3-(diethylamino)propyl]-2-methylbiphenyl-4-carboxamide hydrochloride] | 3 | 0.14 |  |
| CCN(CC)CCNC(=O)c1ccc(-c2ccc(C[C@H](NC(=O)[C@H]3CC[C@H](CN)CC3)C(=O)Nc3ccc(-c4nn[nH]n4)cc3)cc2)c(C)c1.Cl [Example 2, 4′-[(2S)-2-({[trans-4-(Aminomethyl)cyclohexyl]carbonyl}amino)-3-oxo-3-{[4-(2H-tetrazol-5-yl)phenyl]amino}propyl]-N-[2-(diethylamino)ethyl]-2-methylbiphenyl-4-carboxamide hydrochloride] | 4.9 | 0.14 |  |
| Cc1cc(C(=O)NC2CCNCC2)ccc1-c1ccc(C[C@H](NC(=O)[C@H]2CC[C@H](CN)CC2)C(=O)Nc2ccc3[nH]c(=O)oc3c2)cc1 [Example 55, 4′-{(2S)-2-({[trans-4-(Aminomethyl)cyclohexyl]carbonyl}amino)-3-oxo-3-[(2-oxo-2,3-dihydro-1,3-benzoxazol-6-yl)amino]propyl}-2-methyl-N-(piperidin-4-yl)biphenyl-4-carboxamide hydrochloride] | 41 | 0.37 |  |
| Cc1cc(C(=O)NC2CCN(C(C)C)CC2)ccc1-c1ccc(C[C@H](NC(=O)[C@H]2CC[C@H](CN)CC2)C(=O)Nc2ccc(-c3nn[nH]n3)c(F)c2)cc1 [Example 89, 4′-[(2S)-2-({[trans-4-(Aminomethyl)cyclohexyl]carbonyl}amino)-3-{[3-fluoro-4-(2H-tetrazol-5-yl)phenyl]amino}-3-oxopropyl]-N-(1-isopropylpiperidin-4-yl)-2-methylbiphenyl-4-carboxamide hydrochloride] | 4.3 | 0.03 |  |
| NC[C@H]1CC[C@H](C(=O)N[C@@H](Cc2ccc(-c3ccc(C(=O)N[C@@H]4CCNC4)cc3)cc2)C(=O)Nc2ccc(-c3nn[nH]n3)cc2)CC1 [Example 39, 4′-[(2S)-2-({[trans-4-(Aminomethyl)cyclohexyl]carbonyl}amino)-3-oxo-3-{[4-(2H-tetrazol-5-yl)phenyl]amino}propyl]-N-[(3R)-pyrrolidin-3-yl]biphenyl-4-carboxamide hydrochloride] | 9.8 | 0.1 |  |
| CN(C)C1CCC(NC(=O)c2ccc(-c3ccc(C[C@H](NC(=O)[C@H]4CC[C@H](CN)CC4)C(=O)Nc4ccc(-c5nc(C(F)(F)C(F)(F)C(=O)O)n[nH]5)cc4)cc3)c(C(F)(F)F)c2)CC1 (stereo partly drawn) [Example 132, 3-{5-[4-({(2S)-2-({[trans-4-(Aminomethyl)cyclohexyl]carbonyl}amino)-3-[4′-{[4-(dimethyl-amino)cyclohexyl]carbamoyl}-2′-(trifluoromethyl)biphenyl-4-yl]propanoyl}amino)phenyl]-1H-1,2,4-triazol-3-yl}-2,2,3,3-tetrafluoropropanoic acid hydrochloride] | 1.6 | 0.05 |  |

From patent US20160272617A1, “SUBSTITUTED PHENYLALANINE DERIVATIVES” (BAYER PHARMA AKTIENGESELLSCHAFT, priority 2013, published 2016)
